Measurements published in patent publication US9586951B2 (FUJIFILM Corporation, priority 2013, dated 2017).

Assays:
ATM = molecular target: T1, ATM (Homo sapiens, UniProt Q13315); assay: ATM inhibition test (phosphorylation of Chk2 generated by ionizing radiation, AlphaScreen SureFire); assay type: cell-based; details: phosphorylated Chk2 in NCI-H460 cells, ionizing radiation 8Gy, 1 hour after test compound treatment; read-out: ATM inhibitory activity
T1 construct: detecting phosphorylation of Chk2 in a human non-small cell lung cancer cell line NCI-H460 (ATCC company); host or cells: NCI-H460 human non-small cell lung cancer cells
In short: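 NCI-H460 cells, compound 1 h pre-treatment, 8Gy IR, further 1 h at 37° C in 5% CO2. Read-out: phospho-Chk2 via AlphaScreen SureFire. % inhibition relative to IR-induced signal window (irradiated vs non-irradiated drug-free wells).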

[1] = tested on: human non-small cell lung cancer cell line NCI-H460; assay: Cell proliferation inhibition test by sensitivity-enhancing to ionizing radiation (Cell Titer Glo); assay type: cell-based; details: Homo sapiens, NCI-H460, 120 h, concentration in which SER became 2; NCI-H460 cells, ionizing radiation 2 Gy, cultured 120 hour
In short: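 Radiosensitisation measured as SER, a ratio of Cell Titer Glo luminescence in irradiated vs unirradiated plates relative to DMSO; SER2, the concentration yielding SER 2, came from sigmoidal regression. Compound (0.1% DMSO) was given 24 h post-seeding, 2 Gy applied 30 min later, then 120 hour culture at 37° C.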

T1 sequence (Q13315 whole entry): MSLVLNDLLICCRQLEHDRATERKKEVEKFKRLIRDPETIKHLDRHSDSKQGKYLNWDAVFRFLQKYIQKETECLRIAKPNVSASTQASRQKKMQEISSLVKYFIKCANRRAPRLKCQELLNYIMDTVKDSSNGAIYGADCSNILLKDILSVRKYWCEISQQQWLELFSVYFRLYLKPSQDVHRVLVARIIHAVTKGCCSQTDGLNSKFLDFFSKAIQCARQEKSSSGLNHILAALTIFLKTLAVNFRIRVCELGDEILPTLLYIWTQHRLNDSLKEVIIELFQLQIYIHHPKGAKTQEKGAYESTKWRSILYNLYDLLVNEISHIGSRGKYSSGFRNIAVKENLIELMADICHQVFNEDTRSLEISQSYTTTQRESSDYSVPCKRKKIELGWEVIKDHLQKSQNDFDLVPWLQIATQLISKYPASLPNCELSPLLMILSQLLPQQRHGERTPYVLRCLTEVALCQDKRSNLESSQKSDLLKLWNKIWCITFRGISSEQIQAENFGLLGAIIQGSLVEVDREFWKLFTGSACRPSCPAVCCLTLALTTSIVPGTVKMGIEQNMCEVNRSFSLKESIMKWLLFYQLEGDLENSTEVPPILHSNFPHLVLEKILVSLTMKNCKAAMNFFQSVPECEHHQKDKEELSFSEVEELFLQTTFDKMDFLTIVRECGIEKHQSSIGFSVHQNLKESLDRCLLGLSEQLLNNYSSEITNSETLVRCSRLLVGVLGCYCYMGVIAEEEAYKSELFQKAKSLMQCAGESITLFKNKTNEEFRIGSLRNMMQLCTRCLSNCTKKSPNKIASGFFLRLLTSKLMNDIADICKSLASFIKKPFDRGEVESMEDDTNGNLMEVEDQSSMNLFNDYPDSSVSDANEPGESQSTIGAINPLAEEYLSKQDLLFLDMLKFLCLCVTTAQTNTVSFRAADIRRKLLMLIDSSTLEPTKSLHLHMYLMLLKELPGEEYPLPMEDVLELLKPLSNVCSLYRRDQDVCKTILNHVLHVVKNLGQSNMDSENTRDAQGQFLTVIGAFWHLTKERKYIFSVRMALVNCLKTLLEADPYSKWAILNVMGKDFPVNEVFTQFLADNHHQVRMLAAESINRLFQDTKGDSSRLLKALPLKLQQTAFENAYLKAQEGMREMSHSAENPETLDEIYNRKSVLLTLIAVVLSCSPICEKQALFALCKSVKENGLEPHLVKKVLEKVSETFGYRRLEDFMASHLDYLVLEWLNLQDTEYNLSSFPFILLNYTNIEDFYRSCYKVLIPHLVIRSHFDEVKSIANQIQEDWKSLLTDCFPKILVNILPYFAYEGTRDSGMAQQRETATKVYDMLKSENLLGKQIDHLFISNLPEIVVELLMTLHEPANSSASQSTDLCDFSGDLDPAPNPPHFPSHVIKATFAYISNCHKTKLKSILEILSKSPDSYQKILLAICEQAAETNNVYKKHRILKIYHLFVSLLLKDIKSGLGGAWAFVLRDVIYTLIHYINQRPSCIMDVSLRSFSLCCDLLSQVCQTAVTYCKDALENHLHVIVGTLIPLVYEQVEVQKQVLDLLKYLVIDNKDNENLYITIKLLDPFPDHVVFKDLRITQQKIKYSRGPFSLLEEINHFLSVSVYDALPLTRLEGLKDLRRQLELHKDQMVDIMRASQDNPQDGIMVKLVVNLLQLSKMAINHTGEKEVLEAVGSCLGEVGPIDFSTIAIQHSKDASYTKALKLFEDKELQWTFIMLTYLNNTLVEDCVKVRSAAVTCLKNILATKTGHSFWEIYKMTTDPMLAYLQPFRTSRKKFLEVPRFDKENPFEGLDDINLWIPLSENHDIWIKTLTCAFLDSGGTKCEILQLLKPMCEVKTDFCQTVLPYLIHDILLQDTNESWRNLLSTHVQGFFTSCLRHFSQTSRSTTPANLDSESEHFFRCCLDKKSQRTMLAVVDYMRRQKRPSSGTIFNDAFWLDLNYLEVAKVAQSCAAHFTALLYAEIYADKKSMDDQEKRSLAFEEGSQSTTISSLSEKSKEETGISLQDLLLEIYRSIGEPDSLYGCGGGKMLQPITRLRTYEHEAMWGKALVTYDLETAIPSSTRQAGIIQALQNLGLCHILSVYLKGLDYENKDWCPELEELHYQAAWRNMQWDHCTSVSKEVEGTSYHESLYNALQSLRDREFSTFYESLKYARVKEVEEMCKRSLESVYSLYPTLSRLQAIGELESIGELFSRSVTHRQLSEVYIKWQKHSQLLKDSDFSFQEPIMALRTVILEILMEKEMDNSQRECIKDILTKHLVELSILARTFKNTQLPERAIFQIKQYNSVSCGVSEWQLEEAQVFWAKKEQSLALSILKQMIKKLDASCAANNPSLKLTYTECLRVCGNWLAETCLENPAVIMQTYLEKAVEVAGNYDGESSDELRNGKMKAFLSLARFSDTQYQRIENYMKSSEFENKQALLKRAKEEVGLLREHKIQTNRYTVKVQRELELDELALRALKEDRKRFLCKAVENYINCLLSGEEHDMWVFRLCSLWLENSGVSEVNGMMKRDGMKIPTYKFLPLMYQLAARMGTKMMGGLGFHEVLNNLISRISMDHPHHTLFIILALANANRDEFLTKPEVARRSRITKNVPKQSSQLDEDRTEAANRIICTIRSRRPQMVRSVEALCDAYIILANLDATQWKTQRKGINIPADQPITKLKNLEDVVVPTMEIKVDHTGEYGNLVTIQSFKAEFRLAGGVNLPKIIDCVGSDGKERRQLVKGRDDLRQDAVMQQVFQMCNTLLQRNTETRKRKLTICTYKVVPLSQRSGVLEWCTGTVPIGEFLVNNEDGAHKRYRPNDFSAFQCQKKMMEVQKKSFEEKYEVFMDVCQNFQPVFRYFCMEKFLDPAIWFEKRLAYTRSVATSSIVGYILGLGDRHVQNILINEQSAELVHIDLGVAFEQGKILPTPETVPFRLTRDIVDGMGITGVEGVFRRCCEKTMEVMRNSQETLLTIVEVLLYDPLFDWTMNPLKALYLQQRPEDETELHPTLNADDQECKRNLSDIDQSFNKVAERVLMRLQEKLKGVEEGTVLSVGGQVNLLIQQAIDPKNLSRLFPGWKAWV

IC50 (ATM) [nM] | SMILES | SER2 (concentration at which the radiation sensitivity-enhancement ratio reaches 2) [1] [nM]
< 100 | Cc1cnc(CNc2ccc3c(c2)Sc2cccc(-c4cc(N5CCOCC5)cc(=O)[nH]4)c2S3)cn1 [Example 1-12-62, 6-(7-(((5-Methylpyrazin-2-yl)methyl)amino)thianthren-1-yl)-4-morpholino pyridin-2 (1H)-one] | 100 to 500
< 100 | COc1ncc(CNc2ccc3c(c2)Sc2cccc(-c4cc(N5CCOCC5)cc(=O)[nH]4)c2O3)cc1F [Example 4-4-14, 6-(8-(((5-Fluoro-6-methoxypyridin-3-yl)methyl)amino)phenoxathiin-4-yl)-4-morpholino pyridin-2(1H)-one] | 100 to 500
< 100 | CC(CNc1ccc2c(c1)Sc1cccc(-c3cc(N4CCOCC4)cc(=O)[nH]3)c1S2)N1CCOCC1 (racemic) [Example 1-9-2-1, 4-Morpholino-6-(7-((2-morpholinopropyl)amino)thianthren-1-yl)pyridin-2(1H)-one] | 100 to 500
